Measured values: US10681909B2, “Herbicidal triazoles” (FMC Corporation, priority 2014, dated 2020)

Key:
barley, spring = assay: Test D postemergence; assay type: in vivo, Hordeum vulgare; conditions: scale 0 to 100
Source text: (§1) Seeds of plant species selected from bluegrass (annual bluegrass, Poa annua), blackgrass (Alopecurus myosuroides), canarygrass (Phalaris minor), chickweed (common chickweed, Stellaria media), galium (catchweed bedstraw, Galium aparine), bromegrass, down (downy bromegrass, Bromus tectorum), Russian thistle (Salsola kali), field poppy (Papaver rhoeas), field violet (Viola arvensis), foxtail, green (green foxtail, Setaria viridis), deadnettle (henbit deadnettle, Lamium amplexicaule), ryegrass, Ital. (Italian ryegrass, Lolium multiflorum), kochia (Kochia scoparia), lambsquarters (Chenopodium album), oilseed rape (Brassica napus), pigweed (Amaranthus retroflexus), chamomile (scentless chamomile, Matricaria inodora), speedwell (bird's-eye speedwell, Veronica persica), barley, spring (spring barley, Hordeum vulgare), wheat, spring (spring wheat, Triticum aestivum), buckwheat, wild (wild buckwheat, Polygonum convolvulus), wild mustard (Sinapis arvensis), oat, wild (wild oat, Avena fatua), radish, wild (wild radish, Raphanus raphanistrum), […]), barley, winter (winter barley, Hordeum vulgare), and wheat, winter (winter wheat, Triticum aestivum) were planted into a silt loam soil and treated preemergence with test chemicals formulated in a non-phytotoxic solvent mixture which included a surfactant. At the same time, these species were planted in pots containing Sunshine Redi-Earth® planting medium comprising spaghnum peat moss, vermiculite, starter nutrients and dolomitic limestone and treated with postemergence applications of the test chemicals formulated in the same manner. Plants ranged in height from 2 to 18 cm (1- to 4-leaf stage). Treated plants and controls were maintained in a controlled growth environment for 14 to 21 d after which time all species were compared to controls and visually evaluated. […] A dash (-) response means no test result.

barley, winter = assay: Test D postemergence; assay type: in vivo, Hordeum vulgare; conditions: scale 0 to 100
Source text: as §1

canarygrass = assay: Test D preemergence; assay type: in vivo, Phalaris minor; conditions: scale 0 to 100
Source text: as §1

deadnettle = assay: Test D postemergence; assay type: in vivo, Lamium amplexicaule; conditions: scale 0 to 100
Source text: as §1

oilseed rape = assay: Test D preemergence; assay type: in vivo, Brassica napus; conditions: scale 0 to 100
Source text: as §1

galium = assay: Test C preemergence; assay type: in vivo, Galium aparine; conditions: for Plant response rating (scale of 0 to 100 where 0 is no effect and 100 is complete control): Galium, preemergence; for Galium plant response rating (0 to 100): Preemergence, visual rating after 13 to 15 d
Source text: (§2) Seeds of plant species selected from blackgrass (Alopecurus myosuroides), ryegrass, Italian (Italian ryegrass, Lolium multiflorum), wheat (winter wheat, Triticum aestivum), galium (catchweed bedstraw, Galium aparine), corn (Zea mays), crabgrass, large (large crabgrass, Digitaria sanguinalis), foxtail, giant, (giant foxtail, Setaria faberii), johnsongrass (Sorghum halepense), lambsquarters (Chenopodium album), morningglory (Ipomoea coccinea), nutsedge, yellow (yellow nutsedge, Cyperus esculentus), pigweed (Amaranthus retroflexus), ragweed (common ragweed, Ambrosia elatior), soybean (Glycine max), barnyardgrass (Echinochloa crus-galli), oilseed rape (Brassica napus), waterhemp (common waterhemp, Amaranthus rudis), and velvetleaf (Abutilon theophrasti) were planted into a blend of loam soil and sand and treated preemergence with test chemicals formulated in a non-phytotoxic solvent mixture which included a surfactant. At the same time, plants selected from these crop and weed species and also chickweed (common chickweed, Stellaria media), oat, wild (wild oat, Avena fatua), and kochia (Kochia scoparia), were planted in pots containing Sunshine Redi-Earth® planting medium comprising spaghnum peat moss, vermiculite, starter nutrients and dolomitic limestone and treated with postemergence applications of test chemicals formulated in the same manner. Plants ranged in height from 2 to 18 cm (1- to 4-leaf stage) for postemergence treatments. […] A dash (-) response means no test result.

crabgrass, large = assay: Test A postemergence; assay type: in vivo, Digitaria sanguinalis; conditions: Digitaria sanguinalis, post-emergence, 240 h, 0 to 100 scale (0 no effect, 100 complete control), approx. 10 d, read-out: Plant response rating, Crabgrass, Large; for pest or weed control at 125 g/ha: 125 g ai/ha; for pest or weed control at 500 g/ha: 500 g ai/ha
Summary of the method: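 For preemergence, seeds were sown in a loam soil-sand blend and given a directed soil spray of test chemical in a non-phytotoxic solvent mixture with surfactant. For postemergence, plants in pots of the same blend were sprayed with the same formulation at the one- to two-leaf stage, 2 to 10 cm tall.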

blackgrass = assay: Test C preemergence; assay type: in vivo, Alopecurus myosuroides; conditions: for Plant response rating (scale of 0 to 100 where 0 is no effect and 100 is complete control): Blackgrass, preemergence; for Blackgrass plant response rating (0 to 100): Preemergence, visual rating after 13 to 15 d
Source text: as §2

ryegrass, Italian = assay: Test A postemergence; assay type: in vivo, Lolium multiflorum; conditions: 0 to 100 scale (0 no effect, 100 complete control), approx. 10 d
Source text: Seeds of plant species selected from barnyardgrass (Echinochloa crus-galli), crabgrass, large (large crabgrass, Digitaria sanguinalis), kochia (Kochia scoparia), ragweed (common ragweed, Ambrosia elatior), foxtail, giant (giant foxtail, Setaria faberii), morningglory (Ipomoea spp.), pigweed (Amaranthus retroflexus), velvetleaf (Abutilon theophrasti), ryegrass, Italian (Italian ryegrass, Lolium multiflorum), wheat (Triticum aestivum), and corn (Zea mays) were planted into a blend of loam soil and sand and treated preemergence with a directed soil spray using test chemicals formulated in a non-phytotoxic solvent mixture which included a surfactant.
At the same time, plants selected from these crop and weed species and also blackgrass (Alopecurus myosuroides), and galium (catchweed bedstraw, Galium aparine), were planted in pots containing the same blend of loam soil and sand and treated with postemergence applications of test chemicals formulated in the same manner. Plants ranged in height from 2 to 10 cm and were in the one- to two-leaf stage for the postemergence treatment. Treated plants and untreated controls were maintained in a greenhouse for approximately 10 d, after which time all treated plants were compared to untreated controls and visually evaluated for injury. Plant response ratings, summarized in Table A, are based on a 0 to 100 scale where 0 is no effect and 100 is complete control. A dash (-) response means no test result.

Structure (SMILES) | Plant response rating (scale of 0 to 100 where 0 is no effect and 100 is complete control) (galium; 125 g ai/ha) | Plant response rating (scale of 0 to 100 where 0 is no effect and 100 is complete control) (galium; 250 g ai/ha) | Galium plant response rating (0 to 100) (galium; 31 g ai/ha) | Galium plant response rating (0 to 100) (galium; 62 g ai/ha) | pest or weed control at 125 g/ha (crabgrass, large) | pest or weed control at 500 g/ha (crabgrass, large) | Plant response rating (scale of 0 to 100 where 0 is no effect and 100 is complete control) (blackgrass; 125 g ai/ha) | Plant response rating (scale of 0 to 100 where 0 is no effect and 100 is complete control) (blackgrass; 250 g ai/ha) | Blackgrass plant response rating (0 to 100) (blackgrass; 31 g ai/ha) | Blackgrass plant response rating (0 to 100) (blackgrass; 62 g ai/ha) | Plant response rating, Ryegrass, Italian (ryegrass, Italian; 125 g ai/ha) | other results
CCc1nc(-c2ccc(C(F)(F)F)cc2)nn1Cc1ccnc(C(F)(F)F)c1 [Compound 1, 4-[[5-ethyl-3-[4-(trifluoromethyl)phenyl]-1H-1,2,4-triazol-1-yl]methyl]-2-(trifluoromethyl)pyridine] | 100 | 100 | 70 | 98 | 100% | 100% | 80 | 85 | 5 | 75 |  | Plant response rating: Barley, Spring (barley, spring; 31 g ai/ha): 20; Plant response rating: Barley, Spring (barley, spring; 62 g ai/ha): 35; Plant response rating: Barley, Spring (barley, spring; 125 g ai/ha): 35; Plant response rating: Barley, Spring (barley, spring; 250 g ai/ha): 40; Plant response rating: Barley, Winter (barley, winter; 31 g ai/ha): 20; Plant response rating: Barley, Winter (barley, winter; 62 g ai/ha): 25; Plant response rating: Barley, Winter (barley, winter; 125 g ai/ha): 35; Plant response rating: Barley, Winter (barley, winter; 250 g ai/ha): 40; Plant response rating: Canarygrass (canarygrass; 31 g ai/ha): 5; Plant response rating: Canarygrass (canarygrass; 62 g ai/ha): 30; Plant response rating: Canarygrass (canarygrass; 125 g ai/ha): 60; Plant response rating: Canarygrass (canarygrass; 250 g ai/ha): 100; Plant response rating: Deadnettle (deadnettle; 31 g ai/ha): 65; Plant response rating: Deadnettle (deadnettle; 62 g ai/ha): 60; Plant response rating: Deadnettle (deadnettle; 125 g ai/ha): 70; Plant response rating: Deadnettle (deadnettle; 250 g ai/ha): 85; Plant response rating: Oilseed Rape (oilseed rape; 62 g ai/ha): 100; Plant response rating: Oilseed Rape (oilseed rape; 125 g ai/ha): 100; Plant response rating: Oilseed Rape (oilseed rape; 250 g ai/ha): 100
Cn1nc(-c2ccc(F)cc2)nc1Oc1cccc(C(F)(F)F)c1 [Compound 5, 3-(4-fluorophenyl)-1-methyl-5-[3-(trifluoromethyl)phenoxy]-1H-1,2,4-triazole] |  |  |  |  | 30% | 90% |  |  |  |  |  | 
CCCc1nc(-c2ccc(F)cc2)nn1Cc1ccnc(C(F)(F)F)c1 [Compound 6, 4-[[3-(4-fluorophenyl)-5-propyl-1H-1,2,4-triazol-1-yl]methyl]-2-(trifluoromethyl)pyridine] | 100 | 100 | 90 | 98 | 90% | 90% | 95 | 95 | 70 | 90 |  | 
COc1nc(-c2ccc(F)cc2)nn1Cc1ccnc(C(F)(F)F)c1 [Compound 9, 4-[[3-(4-fluorophenyl)-5-methoxy-1H-1,2,4-triazol-1-yl]methyl]-2-(trifluoromethyl)pyridine] | 90 | 98 | 5 | 5 | 90% | 100% | 90 | 90 | 5 | 85 |  | 
Cn1nc(-c2ccc(F)cc2)nc1C(O)c1ccnc(C(F)(F)F)c1 (stereo not drawn) [Compound 14, α-[3-(4-fluorophenyl)-1-methyl-1H-1,2,4-triazol-5-yl]-2-(trifluoromethyl)-4-pyridinemethanol] |  |  |  |  | 20% | 30% |  |  |  |  |  | 
CCn1nc(-c2ccc(F)cc2)nc1C(O)c1ccnc(C(F)(F)F)c1 (stereo not drawn) [Compound 15, α-[1-Ethyl-3-(4-fluorophenyl)-1H-1,2,4-triazol-5-yl]-2-(trifluoromethyl)-4-pyridinemethanol] |  |  |  |  | 0% | 10% |  |  |  |  |  | 
CCCn1nc(-c2ccc(F)cc2)nc1Cc1ccnc(C(F)(F)F)c1 [Compound 17, 4-[[3-(4-fluorophenyl)-1-propyl-1H-1,2,4-triazol-5-yl]methyl]-2-(trifluoromethyl)pyridine] |  |  |  |  | 90% | 90% |  |  |  |  |  | 
CCn1nc(-c2ccc(F)cc2)nc1C(=O)c1ccnc(C(F)(F)F)c1 [Compound 19, [1-ethyl-3-(4-fluorophenyl)-1H-1,2,4-triazol-5-yl][2-(trifluoromethyl)-4-pyridinyl]methanone] |  |  |  |  | 0% | 0% |  |  |  |  |  | 
COc1nc(-c2ccc(C(F)(F)F)cc2)nn1Cc1ccnc(C(F)(F)F)c1 [Compound 25] |  |  |  |  |  |  |  |  |  |  | 30 | Plant response rating, Ryegrass, Italian (ryegrass, Italian; 31 g ai/ha): 10
CCOc1nc(-c2ccc(Cl)cc2)nn1Cc1ccnc(C(F)(F)F)c1 [Compound 26] |  |  |  |  |  |  |  |  |  |  | 50 | Plant response rating, Ryegrass, Italian (ryegrass, Italian; 31 g ai/ha): 20
CS(=O)(=O)c1nc(-c2ccc(F)cc2)nn1Cc1ccnc(C(F)(F)F)c1 [Compound 29, 4-[[3-(4-fluorophenyl)-5-(methylsulfonyl)-1H-1,2,4-triazole-1-yl]methyl]-2-(trifluoromethyl)pyridine] |  |  |  |  | 0% | 0% |  |  |  |  |  | 
COc1nc(-c2ccccc2)nn1Cc1ccnc(C(F)(F)F)c1 [Compound 32] | 60 | 80 | 0 | 0 |  |  | 10 | 90 | 0 | 0 | 0 | Plant response rating, Ryegrass, Italian (ryegrass, Italian; 500 g ai/ha): 50
CCCOc1nc(-c2ccccc2)nn1Cc1ccnc(C(F)(F)F)c1 [Compound 33] |  |  |  |  |  |  |  |  |  |  | 10 | Plant response rating, Ryegrass, Italian (ryegrass, Italian; 500 g ai/ha): 40
